# US7091351B2, “Vanadium compounds for treating cancer” (Parker Hughes Institute, priority 1998, dated 2006)
# Assays:
# Type in all cases: cell-based, human
# [1] = system: Ntera-2 testicular cancer cells; assay: MTT cytotoxicity assay of vanadocenes, NTERA-2 cells; settings: 24 h, 1.9-250 μM
# Description: (§1) Human testicular cancer cell lines, Tera-2 (embryonal carcinoma) and Ntera-2 (pluripotent embryonal carcinoma) were obtained from the American Type Culture Collection (ATCC) (Rockeville, Md.) and propagated in T-25, T-75, or T-150 cm^2 tissue culture flasks (Corning Corp., Corning, N.Y.) in McCoy's 5A medium and Dulbecco's modified Eagle's medium respectively. Both media were supplemented with 10% fetal calf serum (FCS), 4 mM glutamine, 100 U/ml penicillin G, and […] streptomycin sulfate. All tissue culture reagents were obtained from Life Technologies Inc. (GIBCO-BRL), Gaithersburg, Md. Cell lines were cultivated for a minimum of two passages after thawing prior to experimentation. Other cell lines that were used in this study were the human B-lineage acute lymphoblastic leukemia (ALL) cell line NALM-6. Uckun, F. M., Evans, W. E., Forsyth, C. J., Waddick, K. G., Tuel-Ahlgren, L., Chelstrom, L. M., Burkhardt, A., Bolen, J., Myers, D. E. Biotherapy of B-cell precursor leukemia by targeting genistein to CD19-associated tyrosine kinase. Science (Washington DC) 267:886–91, 1995; T-lineage ALL cell line MOLT-3, Waurzyniak, B., Shneider, E. A., Tumer, N., Yanishevski, Y., Gunther, R., Chelstrom, L., Wendorf, H., Myers, D. E., Irvin, J. D., Messinger, Y., Ek, O., Zeren, T., Chandan-Langlie, M., Evans, W. E., Uckun, F. M. In vivo toxicity, pharmacokinetics, and antileukemic activity of TXU (anti-CD7)-pokeweed antiviral protein immunotoxin. Clinical Cancer Research 3:881–890, 1997; AML cell line HL-60, Perentesis, J. P., Waddick, K. G., Bendel, A. E., Shao, Y., Warman, B. E., Chandan-Langlie, M., and Uckun, F. M. Induction of apoptosis in multi-drug resistant andradiation-resistant acute myeloid leukemia cells by a recombinant fusion toxin directed against the granulocyte macrophage colony stimulating factor receptor. Clin. Cancer Res. 3:347–355, 1997; breast cancer cell lines MDA-MB-231 and BT-20, Uckun, F. M., Narla, R. K., Jun, X., Zeren, T., Venkatachalam, T., Waddick, K. G., Rostostev, A., Myers, D. E. Cytotoxic activity of EGF-genstein against breast cancer cells. Clin. Cancer Res. 4:901–912, 1998; glioblastoma cell lines U87 and U373, Narla, R. K., Liu, X., Myers, D. E., and Uckun, F. M. 4-(3′-Bromo-4′hydroxylphenyl)-amino-6,7-dimethoxyquinazoline (WHI-P154): A novel quinazoline derivative with potent cytotoxic activity against human glioblastoma cells. Clin. Cancer Res. 4:1405–1414, 1998.
# (§2) MTT (3-[4,5-dimethyl thiazol-2-yl]-2,5-diphenyltetrazolium bromide)-based colorimetric assays were used for evaluation of the cytotoxicity of vanadocene compounds. Mosmann, T. Rapid colorimetric assay for cellular growth and survival: application to proliferation and cytotoxicity assays. J. Immunol. Methods, 65: 55–63, 1983. Briefly, cells were harvested with 0.125% (w/v) trypsin-0.02% EDTA (GIBCO-BRL) from exponential-phase maintenance cultures and centrifuged (300 g×5 min). After suspension and counting, cells were dispensed within triplicate 96-well tissue culture plates in 100 μl volumes. After 24 h incubation, the culture medium was discarded and replaced with 100 μl of fresh medium containing serial two-fold dilutions of drugs in medium to yield 1.9 μM to 250 μM. All compounds were reconstituted in DMSO to a concentration of 100 mM, and the stock solution was made fresh for each experiment. Control wells consisted of medium containing 0.25% of DMSO alone were used for solvent control. Culture plates were then incubated for 24 h before adding 10 μl of MTT solution (5 mg/ml in PBS) to each well. Wells containing only medium and MTT were used as controls for each plate. The tetrazolium/formazan reaction was allowed to proceed for 4 h at 37° C., and then 100 μl of the solubilization buffer (10% sodium dodecyl sulfate in 0.1% HCl) were added to all wells and mixed thoroughly to dissolve the dark blue formazan crystals. […]
# [2] = system: Ntera-2 testicular cancer cells; assay: Flow cytometric TUNEL apoptosis assay, NTERA-2 cells; settings: 24 h, TUNEL-positive nuclei
# Description: (§3) A flow cytometric two-color terminal […] transferase (TdT)-mediated digoxigenin-uridine triphosphate (dUTP) nick-end labeling assay (TUNEL) was employed to detect apoptotic nuclei. Gavrieli, Y., Sherman, Y., Ben-Sasson, S. A. Identification of programmed cell death in situ via specific labeling of nuclear DNA fragmentation. J. Cell Biol., 119: 493–501, 1992. Exponentially growing cells (10^6/ml) were incubated in DMSO alone (0.1%) or treated with 100 μM each of the 16 vanadocenes (VDB, VDC, VMDC, VDI, VDA, VDCN, VDOCN, VDSCN, VDSeCN, VDT, VDCO, VDFe, VD(acac), VDH, VD(dpy), and VD(dtc) in 0.1% DMSO for 24 h. Cells were washed in PBS, fixed in 4% paraformaldehyde in PBS for 15 min on ice. Following two washings in PBS, they were permeabilized with 0.1% Triton X-100 in 0.1% sodium citrate for 2 min on ice, and washed twice in PBS. Labeling of exposed 3′-hydroxyl (3′-OH) ends of fragmented nuclear DNA was performed using TdT and fluorescein isothiocyanate (FITC)-conjugated dUTP according to the manufacturer's recommendations (Boehringer Mannheim, Indianapolis, Ind.). Cells were counterstained with 5 μg/ml PI. Control samples included: (i) untreated cells; (ii) cells incubated with the reaction mixture without the TdT enzyme. Cells were analyzed with a FACS Calibur flow cytometer (Becton Dickinson, Mountain View, Calif.). Relative DNA content (PI) was detected with band-pass filter 585/42, and dUTP incorporation (FITC) was detected with band-pass filter 530/30. Fluorescence was compensated for in the acquisition software using single-label control samples. Data were acquired in listmode, gated to 10,000 events per sample, and analyzed with the use of CELLQuest software program (Becton Dickinson). […] Vanadocene-induced apoptosis is shown by an increase in the number of cells staining with FITC-dUTP. The M1 and M2 gates were used to demarcate non-apoptotic and apoptotic PI-counterstained cell populations, respectively. TUNEL assays were performed using two testicular cell lines Tera-2 and Ntera-2 following exposure to each of the 16 vanadocenes. In other experiments, MC540 binding (as an early marker of apoptosis) and PI permeability (as a marker of advanced stage apoptosis) were simultaneously measured in human cancer cells 24 hours after exposure to vanadocenes, as previously described. Uckun, F. M., Narla, R. K., Jun, X., Zeren, T., Venkatachalam, T., Waddick, K. G., Rostostev, A., Myers, D. E. Cytotoxic activity of EGF-genstein against breast cancer cells. Clin. Cancer Res. 4:901–912, 1998. Vassilev, A., Ozer, Z., Navara, C., Mahajan, S., and Uckun, F. M. Bruton's tyrosine kinase as an inhibitor of the Fas/CD95 death-inducing signaling complex. J. Biol. Chem. 274:1646–56, 1999. Whole cells were analyzed using a FACStar Plus flow cytometer (Becton Dickinson, San Jose, Calif.). All analyses were done using 488 nm excitation from an argon laser. MC540 and PI emissions were split with a 600 nm short pass dichroic mirror and a 575 nm band pass filter was placed in front of one photomultiplier tube to measure MC540 emission and a 635 nm band pass filter was used for PI emission.
# [3] = system: Tera-2 testicular cancer cells; assay: Flow cytometric TUNEL apoptosis assay, TERA-2 cells; settings: 24 h, TUNEL-positive nuclei
# Description: as §3
# [4] = system: Tera-2 testicular cancer cells; assay: MTT cytotoxicity assay of vanadocenes, TERA-2 cells; settings: 24 h, 1.9-250 μM
# Description: as §1, §2
# U373 glioblastoma cells = assay: MTT cytotoxicity assay of vanadocenes, U373 cells; settings: 24 h
# Description: as §1, §2
Compound,IC50 [1] [µM],% Apoptosis at 100 μM NTERA-2 [2],% Apoptosis at 100 μM TERA-2 [3],IC50 [4] [µM],IC50 (U373 glioblastoma cells) [µM]
"CC(=O)[CH-]C(C)=O.O=S(=O)([O-])C(F)(F)F.[V+4].c1cc[cH-]c1.c1cc[cH-]c1 [VD(acac), VCp2(acac)(O3SCF3)]",75,48 ± 13 (N = 3) %,72 ± 17%,64,–
"[O-]c1ccccc1[O-].[V+2].c1cc[cH-]c1.c1cc[cH-]c1 [VD(cat), Cp2V(cat)]",93,"12 (9, 15) %",–,79,–
"[Cl-].[N-]=C=O.[V+2].c1cc[cH-]c1.c1cc[cH-]c1 [VDCO, VCp2(NCO)Cl]",90,"98 (97, 99) %","73 (67, 78) %",50,–
"CC#N.[Cl-].[Cl-].[Cl-].[Cl-].[Cl-].[Fe+3].[V+4].c1cc[cH-]c1.c1cc[cH-]c1 [VDFe, VCp2Cl (CH3CN)(FeCl4)]",113,"87 (81, 94) %","85 (84, 87) %",100,–
"O=S(=O)(O)C(F)(F)F.O=S(=O)(O)C(F)(F)F.[V+2].c1cc[cH-]c1.c1cc[cH-]c1 [VDT, VCp2(O3SCF3)2]",137,55 ± 26 (N = 4) %,"71 (71, 71) %",76,–
"Cc1c(C)c(C)[c-](C)c1C.Cc1c(C)c(C)[c-](C)c1C.[Cl-].[Cl-].[V+2] [VPMDC, V(Me5Cp)2Cl2]",44,"34 (33, 35) %","35 (35, 36) %",127,172
HfCp2Cl2 [HDC],> 250,–,–,> 250,> 250
MoCp2Cl2 [MDC],> 250,–,–,> 250,> 250
TiCp2Cl2 [TDC],> 250,–,–,> 250,> 250
V(Me5Cp)OCl [VPMOC],77,"6 (6, 7) %","5 (5, 6) %",> 250,–
V(MeCp)2Cl2.0.5 H2O [VMDC],86,"13 (13, 14) %","45 (27, 61) %",123,61
VCp2(H) [VDH],125,20 ± 5 (N = 3) %,84 ± 2 (N = 3) %,118,> 250
VCp2(NCO)2 [VDOCN],63,"95 (94, 96) %","85 (80, 90) %",31,–
VCp2(NCS)2.0.5H2O [VDSCN],17,"53 (46, 60) %","64 (58, 69) %",23,19
VCp2(PH) [VDPH],61,90 ± 3 (N = 4) %,88 ± 3 (N = 3) %,> 250,–
VCp2(bpy)(O3SCF3)2 [VD(bpy)],53,"78 (77, 78) %",–,37,–
VCp2(dtc) [VD(dtc)],83,67 ± 13 (N = 3) %,"83 (82, 84) %",60,7
ZrCp2Cl2 [ZDC],> 250,–,–,> 250,> 250
